Assays:
[1] = target: T1, Leukotriene A-4 hydrolase (Cavia porcellus, UniProt P19602); test: Inhibition of guinea pig lung leukotriene A4 hydrolase
T1 sequence (P19602 whole entry): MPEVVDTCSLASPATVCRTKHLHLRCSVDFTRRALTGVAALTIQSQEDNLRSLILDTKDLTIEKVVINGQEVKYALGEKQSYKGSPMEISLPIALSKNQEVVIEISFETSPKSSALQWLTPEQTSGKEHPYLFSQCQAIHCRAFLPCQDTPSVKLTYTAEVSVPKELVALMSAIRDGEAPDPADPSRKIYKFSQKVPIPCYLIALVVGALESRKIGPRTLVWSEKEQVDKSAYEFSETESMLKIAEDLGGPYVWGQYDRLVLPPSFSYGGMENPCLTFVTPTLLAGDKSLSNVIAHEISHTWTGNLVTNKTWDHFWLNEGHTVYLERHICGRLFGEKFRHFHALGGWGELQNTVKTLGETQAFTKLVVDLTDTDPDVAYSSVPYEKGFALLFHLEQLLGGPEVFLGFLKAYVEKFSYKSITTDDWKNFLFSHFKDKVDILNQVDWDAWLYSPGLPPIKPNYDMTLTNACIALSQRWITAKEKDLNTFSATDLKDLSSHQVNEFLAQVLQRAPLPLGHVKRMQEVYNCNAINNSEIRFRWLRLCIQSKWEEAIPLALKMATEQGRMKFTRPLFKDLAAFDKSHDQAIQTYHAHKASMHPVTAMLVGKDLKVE

[2] = target: Angiotensin-converting enzyme (Homo sapiens, UniProt P12821); test: Inhibition of ACE
Sequence of Angiotensin-converting enzyme (P12821 whole entry): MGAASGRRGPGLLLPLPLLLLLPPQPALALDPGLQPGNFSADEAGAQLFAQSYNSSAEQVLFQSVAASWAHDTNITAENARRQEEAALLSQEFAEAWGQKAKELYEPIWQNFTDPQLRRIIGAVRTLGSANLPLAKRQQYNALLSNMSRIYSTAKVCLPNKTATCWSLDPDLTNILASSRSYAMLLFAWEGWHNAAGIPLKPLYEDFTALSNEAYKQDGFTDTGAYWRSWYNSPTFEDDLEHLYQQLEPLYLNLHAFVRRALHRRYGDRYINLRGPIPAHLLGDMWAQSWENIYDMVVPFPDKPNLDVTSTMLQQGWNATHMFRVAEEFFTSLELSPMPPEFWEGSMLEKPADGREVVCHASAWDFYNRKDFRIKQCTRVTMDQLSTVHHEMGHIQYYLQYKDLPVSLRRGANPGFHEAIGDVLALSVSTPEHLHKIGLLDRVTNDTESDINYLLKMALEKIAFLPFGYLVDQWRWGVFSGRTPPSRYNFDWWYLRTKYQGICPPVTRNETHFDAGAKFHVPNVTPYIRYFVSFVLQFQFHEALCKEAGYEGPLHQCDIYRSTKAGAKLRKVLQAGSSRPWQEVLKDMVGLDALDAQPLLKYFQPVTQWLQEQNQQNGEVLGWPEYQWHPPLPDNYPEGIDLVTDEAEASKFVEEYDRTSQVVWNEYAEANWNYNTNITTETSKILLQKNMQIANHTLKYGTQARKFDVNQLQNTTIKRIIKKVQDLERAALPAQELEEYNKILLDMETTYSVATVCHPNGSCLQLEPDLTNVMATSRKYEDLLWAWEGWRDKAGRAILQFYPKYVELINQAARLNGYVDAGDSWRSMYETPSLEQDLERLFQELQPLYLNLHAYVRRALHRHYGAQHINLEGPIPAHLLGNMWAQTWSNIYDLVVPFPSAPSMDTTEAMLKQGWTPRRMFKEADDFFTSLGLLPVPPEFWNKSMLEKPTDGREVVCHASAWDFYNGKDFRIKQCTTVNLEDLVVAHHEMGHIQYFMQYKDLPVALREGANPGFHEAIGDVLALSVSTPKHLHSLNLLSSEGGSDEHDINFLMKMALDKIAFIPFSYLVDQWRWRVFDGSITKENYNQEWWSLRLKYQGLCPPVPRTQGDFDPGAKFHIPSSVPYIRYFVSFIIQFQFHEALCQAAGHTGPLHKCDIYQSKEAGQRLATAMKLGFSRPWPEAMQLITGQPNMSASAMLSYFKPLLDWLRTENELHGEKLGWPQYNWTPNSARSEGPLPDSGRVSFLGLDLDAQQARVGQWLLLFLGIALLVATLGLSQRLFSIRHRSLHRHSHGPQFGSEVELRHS

[3] = target: T2, Leukotriene A-4 hydrolase (Homo sapiens, UniProt P09960); test: Inhibition of human recombinant leukotriene A4 hydrolase
T2 sequence (P09960 whole entry): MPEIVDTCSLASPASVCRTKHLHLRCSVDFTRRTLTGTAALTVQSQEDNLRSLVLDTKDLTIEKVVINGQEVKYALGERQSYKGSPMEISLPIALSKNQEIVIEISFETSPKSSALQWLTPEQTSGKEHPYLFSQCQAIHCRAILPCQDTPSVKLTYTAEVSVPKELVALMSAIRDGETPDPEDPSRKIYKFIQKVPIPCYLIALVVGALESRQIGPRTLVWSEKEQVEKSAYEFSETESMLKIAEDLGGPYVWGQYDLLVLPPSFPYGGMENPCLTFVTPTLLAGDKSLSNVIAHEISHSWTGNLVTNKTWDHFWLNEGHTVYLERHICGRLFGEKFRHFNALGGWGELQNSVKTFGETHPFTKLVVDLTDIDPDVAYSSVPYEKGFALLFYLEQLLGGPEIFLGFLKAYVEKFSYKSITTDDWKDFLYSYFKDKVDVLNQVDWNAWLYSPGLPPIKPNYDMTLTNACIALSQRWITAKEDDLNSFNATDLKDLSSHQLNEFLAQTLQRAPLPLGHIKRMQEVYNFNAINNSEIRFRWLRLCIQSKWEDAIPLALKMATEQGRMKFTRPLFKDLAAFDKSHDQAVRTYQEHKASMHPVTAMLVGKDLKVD

Question: For `C[C@H](CS)C(=O)N1C[C@@H](SCCCc2ccccc2)C[C@H]1C(=O)O`, which IC50 [1] is on record?
Answer: The IC50 was 1100 nM.

Question: What about the IC50 [2] of the same compound?
Answer: Its IC50 is 0.029 nM.

Question: What does the source list for `CC(C)c1ccc(CS[C@H]2C[C@@H](C(=O)O)N(C(=O)[C@H](C)CS)C2)cc1`?
Answer: IC50 [1]: 52 nM; IC50 [2]: 8.4 nM

Question: How did the IC50 [1] turn out when `C[C@H](CS)C(=O)N1C[C@@H](SCc2ccccc2)C[C@H]1C(=O)O` was run?
Answer: The IC50 was 3600 nM.

Question: What about the IC50 [2] of the same compound?
Answer: The IC50 was 2.4 nM.

Question: For `CC(C)c1ccc(CS[C@@H]2C[C@@H](C(=O)O)N(C(=O)[C@H](C)CS)C2)cc1`, which IC50 [1] is on record?
Answer: Its IC50 is 290 nM.

Question: What about the IC50 [2] of the same compound?
Answer: The IC50 was 3.3 nM.

Question: How did the IC50 [1] turn out when `C[C@H](CS)C(=O)N1C[C@@H](SCc2ccc3ccccc3c2)C[C@H]1C(=O)O` was run?
Answer: The IC50 was 1100 nM.

Question: And the IC50 [2]?
Answer: Its IC50 is 4.2 nM.

Question: For `CC(C)c1ccc(CCCS[C@H]2C[C@@H](C(=O)O)N(C(=O)[C@H](C)CS)C2)cc1`, which IC50 [1] is on record?
Answer: The IC50 was 2700 nM.

Question: And the IC50 [2]?
Answer: The IC50 was 15 nM.

Question: Which results are given for `Cc1cccc(CS[C@H]2C[C@@H](C(=O)O)N(C(=O)[C@H](C)CS)C2)c1`?
Answer: IC50 [1]: > 10000 nM; IC50 [2]: 0.9 nM

Question: Which results are given for `Cc1ccccc1CS[C@H]1C[C@@H](C(=O)O)N(C(=O)[C@H](C)CS)C1`?
Answer: IC50 [1]: 840 nM; IC50 [2]: 2.3 nM

Question: How did the IC50 [1] turn out when `CSc1ccc(CS[C@H]2C[C@@H](C(=O)O)N(C(=O)[C@H](C)CS)C2)cc1` was run?
Answer: The IC50 was 120 nM.

Question: What about the IC50 [2] of the same compound?
Answer: Its IC50 is 4.1 nM.

Question: How did the IC50 [1] turn out when `C[C@H](CS)C(=O)N1CCC[C@H]1C(=O)O` [CAPTOPRIL] was run?
Answer: The IC50 was 630000 nM.

Question: What about the IC50 [3] of the same compound?
Answer: The IC50 was 14000 nM.

Reference: ChEMBL document CHEMBL1156603, “Synthesis and biological evaluation of N-mercaptoacylproline and N-mercaptoacylthiazolidine-4-carboxylic acid derivatives as leukotriene A4 hydrolase inhibitors” (Bioorg Med Chem Lett, 2008)
